US5026882A, “Phosphinic acid substituted steroids as inhibitors of steroid 5α-reductase” (priority 1988, dated 1991)
Where two headings read alike, the source gives them in different places.

Tests used:
steroid 5α-reductase = conditions: cited from earlier work; for Reversible / Irreversible inhibition: Table 1, in words beside Ki; for Ki: Table 1, literature references
[1] = biological target: T1, Human Prostatic Steroid 5α-Reductase (Homo sapiens, UniProt P31213); assay: Inhibition of human steroid 5α-reductase using tissue from hyperplastic human prostates ([14C]-testosterone conversion, Dixon analysis); format: biochemical
T1 construct: Prostatic particles were obtained by differential centrifugation; from tissue; host or cells: frozen human prostates (hyperplastic), 140,000 × g particulate fraction
T1 sequence (P31213 1-254): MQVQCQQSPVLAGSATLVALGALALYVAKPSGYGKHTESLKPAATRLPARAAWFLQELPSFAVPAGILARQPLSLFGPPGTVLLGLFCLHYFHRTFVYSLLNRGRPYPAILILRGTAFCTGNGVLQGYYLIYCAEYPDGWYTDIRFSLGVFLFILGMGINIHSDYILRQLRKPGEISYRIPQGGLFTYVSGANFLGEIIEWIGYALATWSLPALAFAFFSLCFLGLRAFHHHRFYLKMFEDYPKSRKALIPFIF
Experimental: Such diseases and conditions include acne vulgaris, seborrhea, female hirsutism, prostate diseases such as benign prostatic hypertrophy, and male pattern baldness. several compounds of the invention were tested for potency in inhibiting human steroid 5α-reductase using tissue from hyperplastic human prostates. In determining potency in inhibiting the human enzyme, the following procedure was employed:
Frozen human prostates were thawed and minced into small pieces (5 mm^3). The tissue was homogenized in 3 to 5 volumes of 20 mM potassium phosphate, pH 6.5, buffer containing 0.33 M sucrose, 1 mM dithiothreitol, and 50 μM NADPH with a Brinkmann Polytron (Sybron Corporation, Westbury, N.Y.). The solution was subjected to sonication for 3 to 5 minutes with a Sonifier (Branson Sonic Power Co.) followed by hand homogenization in a glass-to-glass Dounce homogenizer (Kontes Glass Company, Vineland, N.J.).
Prostatic particles were obtained by differential centrifugation at 600 to 1000 × g for 20 minutes and 140,000 × g for 60 minutes at 4° C. The pellet obtained from the 140,000 × g centrifugation was washed with 5 to 10 tissue volumes of the buffer described above and recentrifuged at 140,000 × g. The resulting pellet was suspended in 20 mM potassium phosphate buffer, pH 6 5, containing 20% glycerol, 1 mM dithiothreitol, and 50 μM NADPH. The suspended particulate solution was stored at -80° C.
A constant amount of [^14 C]-testosterone (52 to 55 mCi/mmol, New England Nuclear, Boston, Mass.) in ethanol and varying amounts of the potential inhibitor in ethanol were deposited in test tubes and concentrated to dryness in a SAVANT Speed Vac. To each tube was added buffer, 20 μl of 10 mM NADPH and an aliquot of prostatic particulate solution to a final volume of 1.0 ml of 50 mM sodium citrate, pH 5.0. After incubating the solution at 37° C. for 20 to 30 minutes the reaction was quenched by the addition of 4 ml ethyl acetate and 0.25 μmol each of testosterone, dihydrotestosterone, androst-aneidiol, and androst-anedione as carriers. The organic layer was removed to a second test tube and evaporated to dryness in a Speed Vac. The residue was dissolved in 20 to 30 μl chloroform, spotted on an individual lane of a 20×20 cm prechannelled silica gel TLC plate (Si 250F-PA, Baker Chemical) and developed twice with acetone:chloroform (1:9). The radiochemical content in the bands of the substrate and the products was determined with a BIOSCAN Imaging Scanner (Bioscan, Inc., Washington, D.C.). The percent of recovered radiolabel converted to product was calculated, from which enzyme activity was determined. All incubations were conducted such that no more than 12% of the substrate (testosterone) was consumed.
The experimentally obtained data was computer fitted to a linear function by plotting the reciprocal of the enzyme activity (1/velocity) against the variable inhibitor concentration (Dixon, M. (1953), Biochem. J., 55, 170). Assuming that the steroidal inhibitor is a competitive inhibitor against testosterone, a value for the inhibition constant (Ki) can be calculated from equation 1:
Ki =(B/A)/(S/Km +1) Equation 1

[2] = tested on: human steroid 5α-reductase; conditions: read-out: Km (Michaelis-Menton constant of the substrate); testosterone as substrate
Source text: where B is the intercept on the 1/velocity axis, A is the slope of the line, S is the concentration of substrate (testosterone) used in the experiment, and Km is the Michaelis-Menton constant of the substrate (testosterone)

[3] = human prostatic particulate, pH 5.0, 37° C., 20 to 30 minutes, competitive inhibition against testosterone assumed, read-out: Ki , app

Compound	Reversible / Irreversible inhibition (steroid 5α-reductase)	Ki (steroid 5α-reductase)	Ki [1, 3]	other results
C[C@]12CC[C@H]3[C@@H](CCC4=CC(=O)CC[C@@]43C)[C@@H]1CC[C@@H]2C(=O)O	Reversible	1100 nM		
CC(=O)[C@H]1CC[C@H]2[C@@H]3CC=C=CC(=O)CCC(=O)[C@H]3CC[C@]12C	Irreversible	1000 nM		
CC(CO)[C@H]1CC[C@H]2[C@@H]3CC[C@H]4C(=[N+]=[N-])C(=O)CC[C@]4(C)[C@H]3CC[C@]12C (some centres unmarked)	Irreversible	3.5 nM		time dependence of inhibition (in words) (steroid 5α-reductase; literature): potent, time-dependent inhibitor
CC(C)N(C(=O)[C@H]1CC[C@H]2[C@@H]3CC=C4C=C([PH](=O)O)CC[C@]4(C)[C@H]3CC[C@]12C)C(C)C [Example 1, 17β-N,N-Diisopropylcarboxamido-androst-3,5-diene-3-phosphinic acid]			7 nM	
CC(C)(C)NC(=O)[C@H]1CC[C@H]2[C@@H]3CC=C4C=C([PH](=O)O)CC[C@]4(C)[C@H]3CC[C@]12C [Example 2, 17β-N-t-Butylcarboxamide-androst-3,5-diene-3-phosphinic acid]			35 nM	
CC(C)N(C(=O)[C@H]1CC[C@H]2[C@@H]3CC[C@H]4CC([PH](=O)O)=CC[C@]4(C)[C@H]3CC[C@]12C)C(C)C [Example 3, 17β-N,N-Diisopropylcarboxamide-5α-androst-2-ene-3-phosphinic Acid]				Ki [1]: 15 nM
CC(C)N(C(=O)[C@H]1CC[C@H]2[C@@H]3CC[C@H]4C=C([PH](=O)O)CC[C@]4(C)[C@H]3CC[C@]12C)C(C)C [Example 5, 17β-N,N-Diisopropylcarboxamido-5α-androst-3-ene-3-phosphinic acid]			25 nM	
CC(C)N(C(=O)[C@H]1CC[C@H]2[C@@H]3CCC4=CC([PH](=O)O)=CC[C@]4(C)[C@H]3CC[C@]12C)C(C)C [Example 7, 7β-N,N-Diisopropylcarboxamido-androst-2,4-diene-3-phosphinic acid]				Ki [1]: 20 nM
CC(C)N(C(=O)[C@H]1CC[C@H]2[C@@H]3CC=C4C=C(P(C)(=O)O)CC[C@]4(C)[C@H]3CC[C@]12C)C(C)C [Example 9, 17β-N,N-diisopropylcarboxamido-androst-3,5-diene-3-methylphosphinic acid]			55 nM	
C[C@]12CC[C@H]3[C@@H](CCC4=CC(=O)CC[C@@]43C)[C@@H]1CC[C@@H]2O [testosterone]				Km [2]: 4.5 µM
